According to a melting point compilation (Tetko et al.; mined from patent text by program, amines drawn as free bases though some values may be those of a salt):

| SMILES | melting point |
| --- | --- |
| CN(C)Cc1nc(CSCCNc2ncc(CC3CCCO3)c(=O)[nH]2)cs1 (centres undefined) | 118 to 123 °C |
| OCCC1(CCO)c2ccccc2Sc2ccccc21 | 132 to 135 °C |
| CCOC(=O)CC(NC(=O)CNC(=O)c1csc(NC(=N)N)n1)c1cccnc1 (racemic) | 114 °C |
| O=C(CCC1CCCC1)Nc1cccc2ncccc12 | 135 to 138 °C |
| Cc1nc2sc3cc(F)ccc3n2c1CO | 230 to 235 °C |
| CC(C)C(=O)n1ccc(-c2ccc(Oc3ccccc3)cc2)n1 | 49 to 51 °C |
| COc1ccc(CCNCC(O)C(=O)O)cc1OC (centres undefined) | 188 °C |
| COc1nc(N)nc(OC)n1 | 218 to 221 °C |
| COc1ccc2c(c1)sc1[nH]c(=O)c(=O)[nH]c12 | > 300 °C |
| CCOc1n[nH]c(=O)n1C | 126 °C |
| Oc1cc(Cl)c(OCc2ccccc2Cl)c(Cl)c1 | 108 °C |
| CC1CCN(Cc2cccc(OCCCNS(=O)(=O)CCNc3ccc(Cl)c(Cl)c3)c2)CC1 | 130 to 135 °C |
| COc1cccc(-c2oc3ccccc3c(=O)c2OCCCCCCN2CCC(O)CC2)c1 | 119 to 120 °C |
| OC(COC1CCCCO1)(Cn1cncn1)c1ccc(Cl)cc1 (centres undefined) | 70 °C |
| NCc1ccccc1C1CCN(c2c(F)c(N)c3c(=O)c(C(=O)O)cn(C4CC4)c3c2F)C1 (centres undefined) | 164 to 165 °C |
| CC(O)CC1NC(=O)c2sccc2-n2cccc21 (centres undefined) | 170 °C |
| CCOC(=O)Cc1c(C(=O)OCC)c(Br)c(C(=O)c2ccc(Cl)cc2)n1C | 88 to 90 °C |
| CCO/N=C(/CC)c1ccc(Cl)c2nc3n(c12)CCCN3c1ccc(Cl)cc1Cl | 140 to 141 °C |
| NCCON=C(CCCCCCNC(=NS(=O)(=O)c1ccc(Cl)cc1)N1CC(c2ccccc2)C(c2ccc(Cl)cc2)=N1)c1ccc(C(F)(F)F)cc1 (centres undefined) | 53 to 58 °C |
| CCCCN(C(=O)c1ccccc1)C(=NC(=O)c1ccccc1)Nc1ccc(C(N)=O)cc1 | 90 to 92 °C |
| c1ccc(Cc2cnc(N3CCN(c4nc(-c5ccccc5)nc5ccccc45)CC3)nc2)cc1 | 135 to 137 °C |
| COc1ccc(-n2nnnc2C(F)(F)F)cc1C=O | 117 °C |
| CC(C)(O)c1ccc(-c2ccc(C(C)(C)O)cc2)cc1 | 161 °C |

| SMILES | melting point |
| --- | --- |
| COc1cc2c(cc1OCc1ccccc1)C1Cc3c(Cl)cc(OC)c(OCCOCCO)c3CN1CC2 (centres undefined) | 122 °C |
| CS(=O)(=O)NCCn1c(CCO)nc2c(N)nc3cccnc3c21 | 136 to 138 °C |
| CCOc1c(C=O)sc(NC(C)=O)c1C#N | 276 to 277 °C |
| CCc1[nH]n(C2CCCC2)c2nc(Cc3ccc(OCCN4CCOCC4)cc3)nc(=O)c1-2 | 136 to 137 °C |
| NCCN1CCC(Nc2nc3cccnc3n2Cc2ccccn2)CC1 | 151 °C |
| Cc1nc(OC(F)F)nc(C)c1N1CCCn2c1nc1c(Cl)ccc(C(OC(F)F)C(F)(F)F)c12 (centres undefined) | 165 to 166 °C |
| CC(CN(C)C)Oc1ccc(/C=C/C(=O)O)cc1 (centres undefined) | 235 °C |
| CC(=O)OCN=C(O)c1cc(C(O)=NCOC(C)=O)c(C(=O)O)cc1C(=O)O | 237 to 238 °C |
| CCOCC1=NNC(=O)N(N=Cc2cccnc2)C1 | 156 to 158 °C |
| Cn1cnc2cc(NC(=O)c3cc4cc(F)ncc4n3Cc3cccc(F)c3)ccc21 | 279 to 281 °C |
| CCCc1c(OCCCOc2ccc(C(=O)CO)c(OC)c2CCC)ccc2c1OC(C(=O)OC)CC2 (centres undefined) | 87 to 88 °C |
| O=C(CC1CN2C(=O)CC2O1)OC(c1ccccc1)c1ccccc1 (centres undefined) | 64.1 to 64.9 °C |
| CC(=O)NC[C@H]1CN(c2ccc(N3CCC(O)(CC#N)CC3)c(F)c2)C(=O)O1 | 162 to 164 °C |
| Cc1noc(NS(=O)(=O)c2ccccc2-c2ccc(-c3ncco3)cc2CN(C)C(=O)C(C)(C)c2ccccc2)c1C | 130 to 138 °C |
| CCCC[C@@H](C)C[C@@H](CC(=O)OC(C)(C)C)C(=O)O | 142 to 143 °C |
| CC(C)Oc1cccc(C=C(C=O)C(C=O)=Cc2cccc(OC(C)C)c2)c1 | 116 to 117 °C |
| O=C(O)c1cc2cc(F)c(Cl)cc2nc1Cl | 230 °C |
| O=C(/C=C/CC1CCN(Cc2ccccc2)CC1)c1ccc(Nc2ncnc3c2CCC3)cc1 | 184 to 185 °C |
| CCc1c(N)c(C(N)=O)nn1CC1CC1 | 143 to 145 °C |
| CCOC(=O)c1cnc(N(CC)Cc2ccc3nc(C)[nH]c(=O)c3c2)s1 | 188 to 192 °C |
| O=c1c2cc(F)ccc2nc(CNc2ncccn2)n1-c1ccccc1Cl | 182 to 185 °C |
| COc1cc(OC)c(/C=C/C(=O)Nc2ccc(OC)c(N)c2)c(OC)c1 | 92 to 94 °C |
| COc1ccc2ncc(S(=O)(=O)N(C)C)c(O)c2c1 | > 300 °C |

| SMILES | melting point |
| --- | --- |
| CC(C)=CCO[C@H]1NC(=O)[C@@H]1NC(=O)c1ccccc1 | 92 °C |
| O=C(Cn1c(Cl)ccc1Cl)N=C1NCCN1 | 225 °C |
| O=c1[nH]c(=O)n(CCCCN2CC=C(c3ccc(Cl)cc3)CC2)c2ccccc12 | 162 to 166 °C |
| COC(=O)c1cccc(C(=O)Nc2ccc(-n3nc(C(F)(F)F)cc3C(F)(F)F)cc2)c1 | 174 to 175 °C |
| CCCCCCC(C(=O)N1CCC[C@H]1C(=O)O)n1cnc(NC(=O)c2ccccc2S(=O)(=O)O)c1 (some centres undefined) | 190 to 195 °C |
| COc1ccc(Cc2cc(Oc3c(C)cc(C=C4N=C(C)OC4=O)cc3C)ccc2OC)cn1 | 164 to 165 °C |
| CCOC(=O)Cc1c(C(=O)O)c(Br)c(C(=O)c2ccc(C)cc2)n1C | 183 to 185 °C |
| CC(C)OC(=O)C1=C(O)c2ccccc2S(=O)(=O)N1C | 102 to 103 °C |
| Cc1cc(C(C)(C)C)cc2c1OCC(/C=C/C=C/C=C/C(=O)O)=C2 | 225 to 227 °C |
| CCOC(=O)Cc1nc(-c2ccc(Cl)c(Cl)c2)oc1-c1ccoc1 | 130 to 131 °C |
| CC(O)(CCCc1ccc(Cl)cc1)c1ccc(OCc2ccc3ccccc3n2)cc1 (centres undefined) | 110 to 112 °C |
| COc1ccc(CCCNC(=O)N(C)O)cc1OC | 99 to 100 °C |
| C=CCOc1cc(NC(C)=O)c(Cl)cc1C(=O)OC | 110 to 112 °C |
| O=C(N[C@H]1CCN(Cc2ccccc2)C[C@H]1O)c1ccccc1O (relative stereo) | 127 °C |
| COc1ccc(-n2nc(Sc3cc(Cl)cc(Cl)c3)c(C)c(C#N)c2=O)cc1 | 195 to 197 °C |
| CCCCC(=O)c1c(CN(CC)C(C)(C)C)nc2cc(OC)c(OC)cc2c1-c1ccc(OC)c(OC)c1 | 137 to 139 °C |
| O=C(CCc1ccc(Cl)cc1Cl)NC1N=C(c2ccccc2)c2ccccc2-n2ccnc21 (centres undefined) | 183 to 184 °C |
| N#Cc1cc(-c2ccncc2)cnc1Cl | 219 to 223 °C |
| Brc1c[nH]c(CN2CCCC2)c1 | 96 to 99 °C |
| COc1ccc(C(=O)C2=C(O)C(=O)N(c3nnc(C)s3)C2c2cccc(C(=O)O)c2)cc1 (centres undefined) | 281 °C |
| COc1cc(OC)nc(O[C@@H]2CCCC[C@H]2C(=O)NS(=O)(=O)c2ccccc2)n1 (relative stereo) | 175 °C |
| CO[C@@H](C(=O)N[C@H]1CC[C@@H](OC(=O)C2CCCC2)CNC1=O)[C@H](O)[C@@H](O)[C@H](O)/C=C/C(C)(C)C | 75 to 76 °C |

Further lines, results first:

| melting point | SMILES |
| --- | --- |
| 128 to 130 °C | COCn1ccc(C(=O)c2ccc(Cc3ccc(F)cc3)o2)c(O)c1=O |
| 214 °C | O=C1Nc2ccc(Cl)cc2C1(O)c1ccccc1OC(F)(F)F (centres undefined) |
| 65 to 67 °C | O=C(CCC1CCN(Cc2ccccc2)CC1)c1ccc(F)cc1 |
| 193 to 195 °C | O=[N+]([O-])c1cccc(-c2nc3ccc(OC(F)(F)F)cc3[nH]2)c1 |
| 293 to 295 °C | CC(C)(C(=O)O)c1ccc(C(=O)Nc2cn3c4c(ccc3n2)OCC4)cc1 |
| 178 to 179 °C | O=C(CN1C2=NCCN2c2ccccc21)c1ccccc1 |
| 104 to 106 °C | C=CCNC(=O)C1CCc2cc(Oc3ccccc3)ccc2O1 (centres undefined) |
| 192 to 194 °C | CC(C)(C)CC(=O)Nc1ccc([N+](=O)[O-])cc1 |
| 54 to 55 °C | COc1ccc2sc3ccccc3c2c1 |
| 161 to 163 °C | Cc1ccc2c(c1)Sc1ccc(Cl)cc1CC2N1CCN(CCN2CCOC2=O)CC1 (centres undefined) |
| 230 to 255 °C | CC(=O)Nc1cc(N(C)C)c([N+](=O)[O-])cc1C(=O)O |
| 111 to 112 °C | O=[N+]([O-])c1ccc(-c2cccs2)cc1-c1cccs1 |
| 196 to 199 °C | COc1cccc(Cc2cc3cccc(-c4cccc(C(=O)Nc5ccc(F)nc5)c4)c3o2)c1 |
| 184 to 185 °C | O=c1c(N2CCCCC2)nc2ccccc2n1-c1ccc(Cl)cc1 |
| 283 to 285 °C | Cc1ccc2c(c1)C(=O)c1nc3ccccc3c(=O)n1-2 |
| 148 to 149 °C | COc1ccccc1C(=O)CN1CCC(=O)C(C(c2ccc(F)cc2)c2ccc(F)cc2)C1 (centres undefined) |

| melting point | SMILES |
| --- | --- |
| 218 to 220 °C | COc1cc(OCC2CCCO2)ccc1/C=C/c1cc(/C=C/c2ccc3cc[nH]c3c2)n[nH]1 (centres undefined) |
| 68 to 71 °C | CCOC(=O)Cc1ccc2c(c1)C(=O)c1cc(Cl)ccc1CS2 |
| > 260 °C | N#Cc1ccc(-c2ccc(C(=O)O)nc2)cc1 |
| > 260 °C | O=C(O)c1n[nH]c2c1C=CC(c1ccccc1)(c1ccccc1)C2 |
| 148 to 149 °C | Cc1nnc(-c2ccc3occ(-c4ccccn4)c3c2)o1 |
| 196 to 197 °C | Cc1nc(-c2ccc(-c3cscn3)cc2)c(-c2ccc(S(C)(=O)=O)c(F)c2)o1 |
| 219 to 222 °C | CC1CCCN(C(=O)C2Cc3ccc(F)cc3N2c2ccc(=O)n(C)n2)C1 (centres undefined) |
| 121 to 122 °C | O=C(CCCl)NCc1ccc2ccn(C3CCN(CCc4ccc(F)cc4)CC3)c2c1 |
| 177 to 179 °C | O=C1Nc2cc(Cl)ccc2Cn2cccc21 |
| 105 °C | Nc1ccc(C2(c3ccc(F)cc3)OCCO2)cc1[N+](=O)[O-] |
| 54 °C | Nc1ccc(OCc2ccccc2)c(Cl)c1 |
| 39 to 41 °C | O=C(NCCSCc1cccc(F)c1)c1c(F)cccc1F |
| 142 to 144 °C | CCOC(=O)C1=CC2(CCC1S(=O)(=O)Nc1ccc(F)cc1Cl)OCCCCO2 (centres undefined) |
| 180 to 181 °C | C[C@@H](c1ccc(-c2ccc(=O)n(C)c2)cc1)N1CC[C@](CC(C)(C)O)(c2ccccc2)OC1=O |
| > 190 °C | O=C(O)[C@@H]1CN(CCn2c(=O)ccc3c(F)cc(F)cc32)CC[C@H]1NCc1cc2c(cn1)OCCO2 |
